# Results reported in patent publication US20190350940A1, “PLATINUM COMPOUNDS, COMPOSITIONS, AND USES THEREOF” (priority 2015, published 2019).
# Read-outs that look alike come from different tables or passages of the source.
# Assays:
# Calu-6 human NSCLC = experiment: Calu-6 lung xenograft model; assay type: in vivo, mouse
# Procedure: The effect of Compound 8 was evaluated in the Calu-6 human NSCLC nude mouse (female Crl:NU(NCr)-Foxn1^nu) xenograft model.
# NCI-H520 human NSCLC = experiment: NCI-H520 lung xenograft model; assay type: in vivo, mouse
# Procedure: The effect of Compound 8 also was evaluated in the NCI-H520 human NSCLC nude mouse (female CrTac:NCr-Foxn1^nu) xenograft model. […] All treatments were statistically significant compared to vehicle (p<0.0001).
# rats = details: 50 rats treated for 3 weeks, 3×1 mg/kg body weight/week; cited from earlier work
# rat = experiment: Single IV administration in the rat, kidney findings; assay type: in vivo; details: single dose of cisplatin 7 mg/kg
# patients = details: cited from earlier work
# [1] = tested on: A2780 human ovarian cancer; experiment: A2780 ovarian xenograft model; assay type: in vivo, mouse
# Procedure: The effect of Compound 8 on tumor growth inhibition (TGI) was evaluated in the A2780 human ovarian cancer nude mouse (female Crl:NU(NCr)-Foxn1^nu) xenograft model.
# [2] = tested on: BxPC-3 human pancreatic adenocarcinoma; experiment: BxPC-3 pancreatic xenograft model; assay type: in vivo, mouse; details: cisplatin 4 mg/kg
# Procedure: The effect of Compound 8 on TGI was evaluated in the BxPC-3 human pancreatic adenocarcinoma nude mouse (female Crl:NU(NCr)-Foxn1^nu) xenograft model.
# [3] = tested on: MIA Paca-2 human pancreatic adenocarcinoma; experiment: MIA Paca-2 pancreatic xenograft model; assay type: in vivo, mouse
compound,measurement,setting,value
N.N.[Cl][Pt][Cl] [Cisplatin],MTV (mean tumor volume),"Calu-6 human NSCLC; Cisplatin 3 mg/kg (10 uM/kg) IV twice weekly for 2 weeks, Day 33",462 mm^3
same,TGI (tumor growth inhibition) versus vehicle,"Calu-6 human NSCLC; Cisplatin 3 mg/kg IV twice weekly for 2 weeks, Day 33",74%
same,Median TTE (time to endpoint),"Calu-6 human NSCLC; Cisplatin 3 mg/kg IV twice weekly for 2 weeks, Day 54",52.5 days
same,BW loss,Calu-6 human NSCLC; cisplatin 3 mg/kg,no BW loss
same,T-C,Calu-6 human NSCLC; cisplatin 3 mg/kg,16.7 days
same,Treatment-related side effects,"Calu-6 human NSCLC; cisplatin 3 mg/kg, one animal",severe petechiae on Day 4
same,MTV (mean tumor volume),"NCI-H520 human NSCLC; Cisplatin 3 mg/kg (10 uM/kg) IV twice weekly, 5 doses, Day 31",823 mm^3
same,Mean maximal BW loss,"NCI-H520 human NSCLC; cisplatin 3 mg/kg, on Day 4",0.43%
same,Deaths secondary to malignancy,rats,13
same,Kidney findings,rat,high incidence of moderate acute tubular necrosis of the kidney
same,Response rate in most advanced cancers,patients; first-line setting,~50%
same,"Hypersensitivity reactions, patients treated","patients; human, in vivo",up to 20%
same,Response rate in most advanced cancers,patients; second- or third-line setting,15%
same,MTV (mean tumor volume),"[1]; Cisplatin 4 mg/kg (13.3 uM/kg) IV every 3 days, 6 doses",1052 mm^3
same,TGI (tumor growth inhibition) versus vehicle,"[1]; Cisplatin 4 mg/kg IV every 3 days, 6 doses",55%
same,Mean maximal BW loss,"[1]; cisplatin 4 mg/kg, Day 5",2.3%
same,Treatment-related side effects,[2],No treatment-related side effects
O=C1[O][Pt]2([NH][C@@H]3CCCC[C@H]3[NH]2)[O]C1=O [Oxaliplatin],MTV (mean tumor volume),"[3]; Oxaliplatin 7 mg/kg (17.9 uM/kg) IV q3, 7 doses, Day 18",1251 mm^3
same,TGI (tumor growth inhibition) versus vehicle,"[3]; Oxaliplatin 7 mg/kg IV q3, 7 doses, Day 18",61%
same,Treatment-related effects,"[3]; oxaliplatin 7 mg/kg, all animals, Day 18",pale and dehydrated and having petechiae
same,Mean maximal BW loss,"[3]; oxaliplatin 7 mg/kg, printed 'Day 5.3'",8.1%
